Assay results published in patent US7595395B2, “Gabaergic agents to treat memory deficits” (priority 2005, dated 2009).
Read-outs that look alike come from different tables or passages of the source.

Columns and labels:
[1] = target: T1, α2β3γ2 benzodiazepine receptor GABA(A) isoform (UniProt P18507+P47869); test: Radioligand competition binding, α2β3γ2 BzR/GABA(A) isoform; design: species or system human and rat
T1 sequence (P18507 1-475): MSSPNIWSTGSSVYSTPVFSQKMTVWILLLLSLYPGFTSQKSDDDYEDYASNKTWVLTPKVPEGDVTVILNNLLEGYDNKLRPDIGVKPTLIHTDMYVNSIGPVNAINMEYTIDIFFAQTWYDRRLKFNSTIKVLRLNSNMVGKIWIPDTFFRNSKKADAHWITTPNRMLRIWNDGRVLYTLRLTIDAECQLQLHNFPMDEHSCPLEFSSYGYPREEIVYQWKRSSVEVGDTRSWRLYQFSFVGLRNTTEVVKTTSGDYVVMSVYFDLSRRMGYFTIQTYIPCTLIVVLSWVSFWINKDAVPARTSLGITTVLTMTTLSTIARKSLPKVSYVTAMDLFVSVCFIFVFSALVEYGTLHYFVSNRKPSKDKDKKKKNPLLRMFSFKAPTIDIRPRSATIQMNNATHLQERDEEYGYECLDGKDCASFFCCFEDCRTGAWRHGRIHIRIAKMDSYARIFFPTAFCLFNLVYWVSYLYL
T1 sequence (P47869 1-451): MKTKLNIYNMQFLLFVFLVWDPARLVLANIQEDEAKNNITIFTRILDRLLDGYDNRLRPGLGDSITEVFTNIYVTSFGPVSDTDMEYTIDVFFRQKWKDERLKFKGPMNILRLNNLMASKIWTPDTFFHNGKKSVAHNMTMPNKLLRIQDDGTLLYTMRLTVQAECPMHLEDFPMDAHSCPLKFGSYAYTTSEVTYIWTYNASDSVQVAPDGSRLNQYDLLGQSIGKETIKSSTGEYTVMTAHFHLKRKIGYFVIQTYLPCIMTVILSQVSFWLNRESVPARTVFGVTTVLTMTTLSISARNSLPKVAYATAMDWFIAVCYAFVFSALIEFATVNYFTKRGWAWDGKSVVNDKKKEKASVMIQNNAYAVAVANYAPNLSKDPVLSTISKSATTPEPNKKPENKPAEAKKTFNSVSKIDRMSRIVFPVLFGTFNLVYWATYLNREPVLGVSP
Description: (§1) The affinity of all ligands at the 6 major recombinant GABAA/BzR subtypes was measured by competition for [^3H]Ro15-1788 binding to HEK-T cells expressing both human and rat GABAA/Bz receptors of composition α1β2γ2 (α1), α2β2γ2 (α2), α3β2γ2 (α3), α4β2γ2 (α4), α5β2γ2 (α5) and α6β2γ2 (α6). It is well known that the β2 and β3 subunits can be interchanged with no effect on Bz ligand affinity or efficacy. […] These studies are similar to those performed in the laboratory of Bryan Roth who has already expressed the receptors employing the work of Kucken et. al. and Gray et. al.
(§2) In brief, for membrane preparations, the cells were scraped on to the ice and diluted into 5 mL of phosphate buffered saline (pH=7.40) and cells pelleted by centrifugation for 5 min. at 4° C. The pellet was resuspended in 1 mL of 50 mM Tris-acetate buffer (pH 7.4) and centrifuged at 18,000 g for 20 min. […] Each pellet were diluted to 6 mL and then 100 μL of membranes were incubated with approximately 1 nM final concentration of [^3H]Ro 15-1788 in a total volume of 250 μL together with serial dilutions of test compound for 90 min. on ice. The membranes were harvested in polyethyleneimine-pretreated Whatman GF/C filters and after drying and addition of scintillation cocktail, counted in a scintillation counter. The cpm retained on the filters was plotted against log concentration (M) and fitted to one site competition equation to obtain the Ki using Graphpad Prizm (V4.0) using the Cheng-Prusoff approximation.

[2] = target: α6β3γ2 benzodiazepine receptor GABA(A) isoform (UniProt P18507+Q16445); test: Radioligand competition binding, α6β3γ2 BzR/GABA(A) isoform; design: species or system human and rat
Description: as §1, §2

[3] = target: T2, α1β3γ2 benzodiazepine receptor GABA(A) isoform (UniProt P14867+P18507); test: Radioligand competition binding, α1β3γ2 BzR/GABA(A) isoform; design: Ki α1; means of two determinations; Ki α1; α1; species or system human and rat
T2 sequence (P14867 1-456): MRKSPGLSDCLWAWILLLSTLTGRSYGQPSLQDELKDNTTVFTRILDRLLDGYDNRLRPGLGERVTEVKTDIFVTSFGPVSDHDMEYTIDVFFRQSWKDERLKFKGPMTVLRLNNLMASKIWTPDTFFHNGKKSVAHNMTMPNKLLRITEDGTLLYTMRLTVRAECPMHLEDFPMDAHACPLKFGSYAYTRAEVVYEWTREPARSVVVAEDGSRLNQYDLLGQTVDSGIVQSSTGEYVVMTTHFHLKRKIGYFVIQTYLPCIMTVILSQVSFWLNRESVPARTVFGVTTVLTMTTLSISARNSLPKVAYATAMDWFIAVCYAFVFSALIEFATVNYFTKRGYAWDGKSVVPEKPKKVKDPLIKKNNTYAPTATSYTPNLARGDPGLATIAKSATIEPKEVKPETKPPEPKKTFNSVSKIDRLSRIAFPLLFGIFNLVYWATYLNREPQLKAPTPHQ
T2 sequence (P18507 1-475): T1 sequence (P18507 1-475)
Description: as §1, §2

[4] = target: T3, α5β3γ2 benzodiazepine receptor GABA(A) isoform (UniProt P18507+P31644); test: Radioligand competition binding, α5β3γ2 BzR/GABA(A) isoform; design: Ki α5; means of two determinations; Ki α5; α5; other: text; species or system human and rat
T3 sequence (P18507 1-475): T1 sequence (P18507 1-475)
T3 sequence (P31644 1-462): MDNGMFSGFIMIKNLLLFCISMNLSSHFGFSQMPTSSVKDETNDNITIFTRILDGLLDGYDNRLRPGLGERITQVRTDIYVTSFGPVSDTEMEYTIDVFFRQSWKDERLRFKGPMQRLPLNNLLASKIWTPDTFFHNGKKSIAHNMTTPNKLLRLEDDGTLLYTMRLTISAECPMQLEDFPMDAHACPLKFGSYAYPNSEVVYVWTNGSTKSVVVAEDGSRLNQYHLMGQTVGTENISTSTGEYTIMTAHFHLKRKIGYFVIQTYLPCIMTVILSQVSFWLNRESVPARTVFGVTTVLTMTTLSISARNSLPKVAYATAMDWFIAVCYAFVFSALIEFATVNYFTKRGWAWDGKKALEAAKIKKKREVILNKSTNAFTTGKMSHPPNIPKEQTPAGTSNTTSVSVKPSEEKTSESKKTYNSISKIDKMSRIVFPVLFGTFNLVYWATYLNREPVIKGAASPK

[5] = target: α5β3γ2 GABAA receptor (Rattus norvegicus, UniProt P18508+P19969); test: Two-electrode voltage clamp in Xenopus oocytes, α5β3γ2; details: oocytes
[6] = read-out: Ki α2, Table I, means of two determinations
[7] = read-out: α2, untitled table of lead compounds, unit inferred
[8] = read-out: Ki α6, Table I, means of two determinations
[9] = read-out: α6, untitled table of lead compounds, unit inferred
[10] = read-out: Ki α1, Table I, means of two determinations
[11] = read-out: α1, untitled table of lead compounds, unit inferred
[12] = read-out: Ki α5, Table I, means of two determinations
[13] = read-out: α5, untitled table of lead compounds, unit inferred

Sequence of α5β3γ2 GABAA receptor (P19969 26-464): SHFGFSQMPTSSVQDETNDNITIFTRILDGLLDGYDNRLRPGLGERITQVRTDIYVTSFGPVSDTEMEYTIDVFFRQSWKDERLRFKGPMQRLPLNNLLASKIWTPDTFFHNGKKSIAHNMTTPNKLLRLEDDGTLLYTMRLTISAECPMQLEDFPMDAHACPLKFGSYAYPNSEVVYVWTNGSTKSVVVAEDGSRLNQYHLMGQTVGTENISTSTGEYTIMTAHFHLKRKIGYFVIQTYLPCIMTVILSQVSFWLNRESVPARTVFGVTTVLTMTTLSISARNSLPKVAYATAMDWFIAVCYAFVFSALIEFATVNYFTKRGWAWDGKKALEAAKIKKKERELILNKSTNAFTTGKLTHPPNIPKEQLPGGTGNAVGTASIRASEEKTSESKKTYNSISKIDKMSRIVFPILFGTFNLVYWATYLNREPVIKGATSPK
Sequence of α5β3γ2 GABAA receptor (P63079 26-473 partner): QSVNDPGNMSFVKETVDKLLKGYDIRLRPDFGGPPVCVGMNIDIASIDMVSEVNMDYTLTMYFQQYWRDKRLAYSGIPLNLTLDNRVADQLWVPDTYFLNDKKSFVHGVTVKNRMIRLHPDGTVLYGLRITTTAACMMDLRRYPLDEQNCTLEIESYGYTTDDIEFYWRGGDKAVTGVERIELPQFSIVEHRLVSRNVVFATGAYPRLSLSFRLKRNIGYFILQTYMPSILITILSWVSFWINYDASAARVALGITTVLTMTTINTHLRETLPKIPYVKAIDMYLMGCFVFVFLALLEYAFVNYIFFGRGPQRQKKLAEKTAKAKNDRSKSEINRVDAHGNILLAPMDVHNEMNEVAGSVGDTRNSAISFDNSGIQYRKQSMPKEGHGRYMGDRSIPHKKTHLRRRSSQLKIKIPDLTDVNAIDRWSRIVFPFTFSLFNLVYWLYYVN
Sequence of α5β3γ2 GABAA receptor (P18508 39-466): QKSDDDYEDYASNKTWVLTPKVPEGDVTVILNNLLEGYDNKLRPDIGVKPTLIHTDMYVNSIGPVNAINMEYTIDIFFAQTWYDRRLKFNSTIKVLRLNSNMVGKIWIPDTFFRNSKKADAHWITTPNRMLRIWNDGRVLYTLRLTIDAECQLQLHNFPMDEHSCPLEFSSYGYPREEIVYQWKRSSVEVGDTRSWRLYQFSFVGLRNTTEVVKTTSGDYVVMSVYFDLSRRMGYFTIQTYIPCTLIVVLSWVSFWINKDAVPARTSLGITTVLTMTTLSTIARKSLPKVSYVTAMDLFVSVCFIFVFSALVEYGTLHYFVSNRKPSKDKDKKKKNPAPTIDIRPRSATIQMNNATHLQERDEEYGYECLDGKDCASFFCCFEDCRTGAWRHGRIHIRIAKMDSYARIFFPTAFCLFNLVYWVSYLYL

Row | Structure (SMILES) | Ki [1, 6] [nM] | Ki [1, 7] [nM] | Ki [2, 8] [nM] | Ki [2, 9] [nM] | Ki [3, 10] [nM] | Ki [3, 11] [nM] | Ki [4, 12] [nM] | Ki ([4]; read-out: binding potency at α5 subtypes) [nM] | Ki [4, 13] [nM] | efficacy / modulation of GABA elicited currents at α5 (in words) [5] | Ki ([1]; read-out: Ki α2, Table 2, means of two determinations) [nM] | Ki ([2]; read-out: Ki α6, Table 2, means of two determinations) [nM] | Ki ([3]; read-out: Ki α1, Table 2, means of two determinations) [nM] | Ki ([4]; read-out: Ki α5, Table 2, means of two determinations) [nM] | efficacy / modulation of GABA elicited currents at α5 (in words) ([5]; listed as XLi-356) | efficacy / modulation of GABA elicited currents at α5 (in words) ([5]; listed as Xli356)
1 | CCOC(=O)c1ncn2c1CN=C(c1ccccc1)c1cc(-c3ccccc3)ccc1-2 [DM-I-81, Ethyl 8-phenyl-6-phenyl-4H-benzo[f]imidazo[1,5-a][1,4]diazepine-3-carboxylate] | > 2000 | > 2000 | > 2000 | > 2000 | > 2000 | > 2000 | 176 | 174 | 176 | moderate agonist activity |  |  |  |  |  | 
2 | COCc1ncn2c1CN(C)C(=O)c1cc(Cl)ccc1-2 [PWZ-029, methyl(8-chloro-5,6-dihydro-5-methyl-6-oxo-4H-imidazo[1,5-α][1,4]benzodiazepin-3-yl)methyl ether] | > 300 | > 300 | > 300 | > 300 | > 300 | > 300 | 38.8 |  | 38.8 | selective inverse agonist |  |  |  |  |  | 
3 | CCc1ccc2c(c1)C(=O)N(C)Cc1c(C(=O)OCCCOC(=O)c3ncn4c3CN(C)C(=O)c3cc(CC)ccc3-4)ncn1-2 [XLi356, 1,3-Bis(8-ethyl-5,6-dihydro-5-methyl-6-oxo-4H-imidazo[1,5a][1,4]benzodiazepine-3-carboxy)propyl diester] |  | 5980 |  |  |  | 2380 |  |  | 107 |  | 5980 | 5000 | 2380 | 107 | clear agonist | appears to be an agonist
